Source: patent US20260217697A1, “COMPOUNDS COMPRISING HETEROARYL RINGS AND COMPOSITIONS AND METHODS THEREOF” (lonGen Therapeutics Co., Ltd., priority 2022, published 2026)

Target: T1, hTRPV3 (Homo sapiens, UniProt Q8NET8)
T1 construct: The commercially available plasmid with the full-length cDNA of hTRPV3 (791 aa) (NM_001258205.2); host or cells: HEK293T
T1 sequence (Q8NET8 1-791 isoform Q8NET8-2): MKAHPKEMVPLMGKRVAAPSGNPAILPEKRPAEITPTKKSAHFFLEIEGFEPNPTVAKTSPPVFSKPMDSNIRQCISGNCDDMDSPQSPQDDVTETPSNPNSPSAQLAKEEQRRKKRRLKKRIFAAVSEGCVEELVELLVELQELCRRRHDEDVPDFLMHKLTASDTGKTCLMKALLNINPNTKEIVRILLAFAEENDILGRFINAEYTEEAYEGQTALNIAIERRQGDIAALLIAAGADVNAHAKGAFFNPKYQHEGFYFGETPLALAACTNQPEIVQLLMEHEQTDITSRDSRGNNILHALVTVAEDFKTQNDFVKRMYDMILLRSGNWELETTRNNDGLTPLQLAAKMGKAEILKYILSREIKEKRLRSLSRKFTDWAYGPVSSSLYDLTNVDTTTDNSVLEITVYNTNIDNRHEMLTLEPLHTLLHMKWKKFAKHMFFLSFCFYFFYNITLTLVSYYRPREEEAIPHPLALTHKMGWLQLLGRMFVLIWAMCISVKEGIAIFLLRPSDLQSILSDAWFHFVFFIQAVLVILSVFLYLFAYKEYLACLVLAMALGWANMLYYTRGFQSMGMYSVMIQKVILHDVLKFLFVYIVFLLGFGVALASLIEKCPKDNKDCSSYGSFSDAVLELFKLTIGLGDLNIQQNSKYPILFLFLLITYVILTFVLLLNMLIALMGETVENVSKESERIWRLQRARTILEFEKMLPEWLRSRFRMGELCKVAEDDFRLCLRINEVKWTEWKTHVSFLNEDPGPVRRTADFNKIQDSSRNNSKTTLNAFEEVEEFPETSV
Test: Whole-cell patch-clamp recording of hTRPV3 current in transfected HEK293T cells (2-APB induced)
Format: cell-based
Conditions: current induced by 300 μM 2-APB, compounds tested up to 10 μM, room temperature
How it was run: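 IC50 comes from Hill fits, 0–100% bounds, of percent block of 2-APB-induced current, with compounds perfused at up to 10 μM. Currents elicited at +80/−80 mV (400-ms steps, 2-s interval, 0 mV hold), room temperature, symmetric NaCl/EDTA/HEPES pH 7.4 solutions. Cells: hTRPV3-transfected HEK293T, used 18 h after transfection.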

Structure (SMILES) | IC50
CCC1(CC)Oc2cc(C)ccc2-c2nc(NC(=O)c3c(OC)ncnc3OC)sc21 [compound 124, N-(4,4-diethyl-7-methyl-4H-chromeno[4,3-d]thiazol-2-yl)-4,6-dimethoxypyrimidine-5-carboxamide] | 0.1 to 1 µM
COc1ncnc(OC)c1C(=O)Nc1nc2c(s1)C1(CCC(C(=O)NC(C)C)CC1)Oc1cc(C(F)(F)F)ccc1-2 (stereo not shown) [compound 125, 2-(4,6-dimethoxypyrimidine-5-carboxamido)-N-isopropyl-7-(trifluoromethyl)spiro[chromeno[4,3-d]thiazole-4,1′-cyclohexane]-4′-carboxamide] | 1 to 10 µM
COc1ncnc(OC)c1C(=O)Nc1nc2c(s1)C1(CCC(C(=O)N(C)Cc3ccccc3)CC1)Oc1cc(C(F)(F)F)ccc1-2 (stereo not shown) [compound 126, N-benzyl-2-(4,6-dimethoxypyrimidine-5-carboxamido)-N-methyl-7-(trifluoromethyl)spiro[chromeno[4,3-d]thiazole-4,1′-cyclohexane]-4′-carboxamide] | 0.1 to 1 µM
COc1ncnc(OC)c1C(=O)Nc1nc2c(s1)C1(CCC(C(=O)N(C)C(C)C)CC1)Oc1cc(C(F)(F)F)ccc1-2 (stereo not shown) [compound 127, 2-(4,6-dimethoxypyrimidine-5-carboxamido)-N-isopropyl-N-methyl-7-(trifluoromethyl)spiro[chromeno[4,3-d]thiazole-4,1′-cyclohexane]-4′-carboxamide] | 0.1 to 1 µM
CCOC(=O)[C@H]1CC[C@]2(CC1)Oc1cc(Br)ccc1-c1nc(NC(=O)c3c(OC)ncnc3OC)sc12 [compound 128] | 0.1 to 1 µM
CCOC(=O)[C@H]1CC[C@@]2(CC1)Oc1cc(Br)ccc1-c1nc(NC(=O)c3c(OC)ncnc3OC)sc12 [compound 129] | 0.1 to 1 µM
CCOC(=O)[C@H]1CC[C@@]2(CC1)Oc1cc(C(C)C)ccc1-c1nc(NC(=O)c3c(OC)ncnc3OC)sc12 [compound 130] | 1 to 10 µM
COc1ncnc(OC)c1C(=O)Nc1nc2c(s1)C1(CC(NC(=O)OC(C)(C)C)C1)Oc1cc(C(F)(F)F)ccc1-2 (stereo not shown) [compound 131, tert-butyl(2-(4,6-dimethoxypyrimidine-5-carboxamido)-7-(trifluoromethyl)spiro[chromeno[4,3-d]thiazole-4,1′-cyclobutan]-3′-yl)carbamate] | 0.1 to 1 µM
COc1ncnc(OC)c1C(=O)Nc1nc2c(s1)C1(CN(C(=O)OC(C)(C)C)C1)Oc1cc(C(C)C)ccc1-2 [compound 132, tert-butyl 2′-(4,6-dimethoxypyrimidine-5-carboxamido)-7′-isopropylspiro[azetidine-3,4′-chromeno[4,3-d]thiazole]-1-carboxylate] | 0.1 to 1 µM
CCOC(=O)C1CC2(C1)Oc1cc(C(F)(F)F)ccc1-c1nc(NC(=O)c3c(OC)ncnc3OC)sc12 (stereo not shown) [compound 133, ethyl 2-(4,6-dimethoxypyrimidine-5-carboxamido)-7-(trifluoromethyl)spiro[chromeno[4,3-d]thiazole-4,1′-cyclobutane]-3′-carboxylate] | < 0.1 µM
COc1ncnc(OC)c1C(=O)Nc1nc2c(s1)C1(COC1)Oc1cc(Br)ccc1-2 [compound 134, N-(7-bromospiro[chromeno[4,3-d]thiazole-4,3′-oxetan]-2-yl)-4,6-dimethoxypyrimidine-5-carboxamide] | 0.1 to 1 µM
COc1ncnc(OC)c1C(=O)Nc1nc2c(s1)C1(COC1)Oc1cc(C(C)C)ccc1-2 [compound 135, N-(7-isopropylspiro[chromeno[4,3-d]thiazole-4,3′-oxetan]-2-yl)-4,6-dimethoxypyrimidine-5-carboxamide] | < 0.1 µM
COc1ncnc(OC)c1C(=O)Nc1nc2c(s1)C1(CN(C(C)C)C1)Oc1cc(C(F)(F)F)ccc1-2 [compound 136, N-(1-isopropyl-7′-(trifluoromethyl)spiro[azetidine-3,4′-chromeno[4,3-d]thiazol]-2′-yl)-4,6-dimethoxypyrimidine-5-carboxamide] | < 0.1 µM
COc1ncnc(OC)c1C(=O)Nc1nc2c(s1)C1(COC1)Oc1cc(C#N)ccc1-2 [compound 137, N-(7-cyanospiro[chromeno[4,3-d]thiazole-4,3′-oxetan]-2-yl)-4,6-dimethoxypyrimidine-5-carboxamide] | ≥ 10 µM
COc1ncnc(OC)c1C(=O)Nc1nc2c(s1)C1(COC1)Oc1cc(C3CC3)ccc1-2 [compound 138, N-(7-cyclopropylspiro[chromeno[4,3-d]thiazole-4,3′-oxetan]-2-yl)-4,6-dimethoxypyrimidine-5-carboxamide] | 0.1 to 1 µM
COc1ncnc(OC)c1C(=O)Nc1nc2c(s1)C1(COC1)Oc1cc(C(C)(C)O)ccc1-2 [compound 139, N-(7-(2-hydroxypropan-2-yl)spiro[chromeno[4,3-d]thiazole-4,3′-oxetan]-2-yl)-4,6-dimethoxypyrimidine-5-carboxamide] | ≥ 10 µM
COc1ncnc(OC)c1C(=O)Nc1nc2c(s1)C1(COC1)Oc1cc(C(C)(C)C#N)ccc1-2 [compound 140, N-(7-(2-cyanopropan-2-yl)spiro[chromeno[4,3-d]thiazole-4,3′-oxetan]-2-yl)-4,6-dimethoxypyrimidine-5-carboxamide] | 1 to 10 µM
COc1ncnc(OC)c1C(=O)Nc1nc2c(s1)-c1ccc(C(F)(F)F)cc1OC21CCS(=O)(=O)CC1 [compound 141, N-(1′,1′-dioxido-7-(trifluoromethyl)-2′,3′,5′,6′-tetrahydrospiro[chromeno[3,4-d]thiazole-4,4′-thiopyran]-2-yl)-4,6-dimethoxypyrimidine-5-carboxamide] | 1 to 10 µM
CCC1(CC)Oc2cc(C(F)(F)F)ccc2-c2nc(NC(=O)c3c(OC)cccc3OC)sc21 [compound 142, N-(4,4-diethyl-7-(trifluoromethyl)-4H-chromeno[4,3-d]thiazol-2-yl)-2,6-dimethoxybenzamide] | ≥ 10 µM
CCC1(CC)Oc2cc(C(F)(F)F)ccc2-c2nc(N3CN(C)c4ncnc(OC)c4C3=O)sc21 [compound 143, 3-(4,4-diethyl-7-(trifluoromethyl)-4H-chromeno[4,3-d]thiazol-2-yl)-5-methoxy-1-methyl-2,3-dihydropyrimido[4,5-d]pyrimidin-4 (1H)-one] | ≥ 10 µM
COc1ncnc(O)c1C(=O)Nc1nc2c(s1)C1(COC1)Oc1cc(C(C)C)ccc1-2 [compound 144, 4-hydroxy-N-(7-isopropylspiro[chromeno[4,3-d]thiazole-4,3′-oxetan]-2-yl)-6-methoxypyrimidine-5-carboxamide] | ≥ 10 µM
COc1ncnc(OC)c1C(=O)Nc1nc2c(s1)C1(CN(C(C)C)C1)Oc1cc(C(C)C)ccc1-2 [compound 145, N-(1,7′-diisopropylspiro[azetidine-3,4′-chromeno[4,3-d]thiazol]-2′-yl)-4,6-dimethoxypyrimidine-5-carboxamide] | 0.1 to 1 µM
COc1ncnc(OC)c1C(=O)Nc1nc2c(s1)C1(CN(C(C)C)C1)Oc1cc(Br)ccc1-2 [compound 146, N-(7′-bromo-1-isopropylspiro[azetidine-3,4′-chromeno[4,3-d]thiazol]-2′-yl)-4,6-dimethoxypyrimidine-5-carboxamide] | < 0.1 µM
COc1ncnc(OCCN(C)C)c1C(=O)Nc1nc2c(s1)C1(COC1)Oc1cc(C(C)C)ccc1-2 [compound 147, 4-(2-(dimethylamino)ethoxy)-N-(7-isopropylspiro[chromeno[4,3-d]thiazole-4,3′-oxetan]-2-yl)-6-methoxypyrimidine-5-carboxamide] | 1 to 10 µM
COc1ncnc(OC)c1C(=O)Nc1nc2c(s1)C1(CN(C(C)C)C1)Oc1cc(C#N)ccc1-2 [compound 148, N-(7′-cyano-1-isopropylspiro[azetidine-3,4′-chromeno[4,3-d]thiazol]-2′-yl)-4,6-dimethoxypyrimidine-5-carboxamide] | 0.1 to 1 µM
COc1ncnc(OC)c1C(=O)Nc1nc2c(s1)C1(CN(C3CC3)C1)Oc1cc(C(F)(F)F)ccc1-2 [compound 149, N-(1-cyclopropyl-7′-(trifluoromethyl)spiro[azetidine-3,4′-chromeno[4,3-d]thiazol]-2′-yl)-4,6-dimethoxypyrimidine-5-carboxamide] | < 0.1 µM
COc1ncnc(OC)c1C(=O)Nc1nc2c(s1)C1(CN(CC(C)C)C1)Oc1cc(C(F)(F)F)ccc1-2 [compound 150, N-(1-isobutyl-7′-(trifluoromethyl)spiro[azetidine-3,4′-chromeno[4,3-d]thiazol]-2′-yl)-4,6-dimethoxypyrimidine-5-carboxamide] | < 0.1 µM
COc1ncnc(OCCN(C)C)c1C(=O)Nc1nc2c(s1)C1(COC1)Oc1cc(C(F)(F)F)ccc1-2 [compound 151, 4-(2-(dimethylamino)ethoxy)-6-methoxy-N-(7-(trifluoromethyl)spiro[chromeno[4,3-d]thiazole-4,3′-oxetan]-2-yl)pyrimidine-5-carboxamide] | 1 to 10 µM
